Columns and labels:
Settings in all cases: 72 h
Caco-2 [1] = test: cell viability relative to DMSO; higher = less toxic
Calu-3 [2] = test: as above
HepG2 [3] = test: as above
U2OS [4] = test: as above
Vero E6 [5] = test: as above
Caco-2 [6] = test: relative viability EC50 (midpoint between 100% and the lowest measured viability); higher = less toxic
Calu-3 [7] = test: as above
HepG2 [8] = test: as above
U2OS [9] = test: as above
Vero E6 [10] = test: as above
Caco-2 [11] = test: drug sensitivity score (DSS) for viability; higher = more toxic; extreme values may be limits of the assay
Calu-3 [12] = test: as above
HepG2 [13] = test: as above
U2OS [14] = test: as above
Vero E6 [15] = test: as above

Structure (SMILES)	cell viability (Caco-2 [1]; 1 nM)	cell viability (Caco-2 [1]; 10 nM)	cell viability (Caco-2 [1]; 100 nM)	cell viability (Caco-2 [1]; 1000 nM)	cell viability (Caco-2 [1]; 10000 nM)	cell viability (Calu-3 [2]; 1 nM)	cell viability (Calu-3 [2]; 10 nM)	cell viability (Calu-3 [2]; 100 nM)	cell viability (Calu-3 [2]; 1000 nM)	cell viability (Calu-3 [2]; 10000 nM)	cell viability (HepG2 [3]; 1 nM)	cell viability (HepG2 [3]; 10 nM)	cell viability (HepG2 [3]; 100 nM)	cell viability (HepG2 [3]; 1000 nM)	cell viability (HepG2 [3]; 10000 nM)	cell viability (U2OS [4]; 1 nM)	cell viability (U2OS [4]; 10 nM)	cell viability (U2OS [4]; 100 nM)	cell viability (U2OS [4]; 1000 nM)	cell viability (U2OS [4]; 10000 nM)	cell viability (Vero E6 [5]; 1 nM)	cell viability (Vero E6 [5]; 10 nM)	cell viability (Vero E6 [5]; 100 nM)	cell viability (Vero E6 [5]; 1000 nM)	cell viability (Vero E6 [5]; 10000 nM)	relative viability EC50 (Caco-2 [6])	relative viability EC50 (Calu-3 [7])	relative viability EC50 (HepG2 [8])	relative viability EC50 (U2OS [9])	relative viability EC50 (Vero E6 [10])	drug sensitivity score (Caco-2 [11])	drug sensitivity score (Calu-3 [12])	drug sensitivity score (HepG2 [13])	drug sensitivity score (U2OS [14])	drug sensitivity score (Vero E6 [15])
C[C@]12CC[C@H](O)C[C@H]1CC[C@@H]1[C@@H]2CC[C@]2(C)[C@@H](C3=CC(=O)OC3)CC[C@]12O [digitoxigenin]	78.9%	84.9%	84.1%	36%	42.3%	97.7%	93.4%	104%	50.5%	17.7%	118%	117%	94.5%	39.2%	12.2%	105%	105%	101%	16.4%	6.9%	108%	97.3%	13.2%	0.7%	0.6%	0.18 µM	0.849 µM	0.605 µM	0.435 µM	0.0448 µM	13.5	10.5	12.4	15.2	28.4
C[N+](C)(C)CC#CCN1CCCC1=O [oxotremorine-M]	102%	104%	93.7%	107%	98.6%	94.9%	98.3%	91%	102%	102%	92%	108%	92%	102%	99.1%	102%	105%	97.5%	102%	99.5%	94.5%	93.5%	93.5%	96%	95.7%	> 10 µM	> 10 µM	> 10 µM	> 10 µM	> 10 µM	0	0	0	0	0
O=C1COc2c(CCNCCN(C(=O)CCNCCc3ccc(Cl)c(Cl)c3)C3CCCCC3)ccc(O)c2N1 [AZ505]	104%	98.4%	95.8%	97.8%	97.9%	88.2%	89.6%	108%	102%	105%	95.9%	98.6%	118%	97.2%	89.4%	102%	101%	99.2%	103%	91.2%	107%	99.4%	104%	99.7%	109%	> 10 µM	> 10 µM	> 10 µM	> 10 µM	> 10 µM	0	0	0	0	0
Cc1cc(C)c2c(c1)[C@@H](N(Cc1cc(C(F)(F)F)cc(C(F)(F)F)c1)c1nnn(C)n1)CCCN2C[C@H]1CC[C@H](C(=O)O)CC1 [evacetrapib]	90.6%	94.9%	108%	99.8%	97.3%	97%	88.9%	100%	96.9%	89.9%	97%	100%	95.6%	99.5%	104%	98.1%	100%	97.5%	103%	91.9%	96.1%	97.3%	95.7%	93.3%	102%	> 10 µM	> 10 µM	> 10 µM	> 10 µM	> 10 µM	0	0	0	0	0
CC(=O)N1CC[N+](C)(C)CC1 [4-acetyl-1,1-dimethylpiperazinium]	100%	100%	98.7%	98.2%	97.9%	102%	101%	97%	102%	88.6%	93.6%	109%	111%	97.9%	91.2%	101%	100%	97.5%	102%	95%	100%	111%	106%	96.8%	101%	> 10 µM	> 10 µM	> 10 µM	> 10 µM	> 10 µM	0	0	0	0	0
O=C(O)C(=O)Nc1cccc(-c2nnn[nH]2)c1 [acitazanolast]	100%	86.7%	88.4%	95.9%	97.1%	100%	107%	91.3%	105%	99%	94.8%	99%	101%	96.3%	110%	99.8%	98.4%	99.3%	101%	96%	98.7%	99.5%	99.4%	100%	97.4%	> 10 µM	> 10 µM	> 10 µM	> 10 µM	> 10 µM	0	0	0	0	0
CC(C)n1cnc2c(C(=O)N[C@H]3CN4CCC3CC4)cc(Cl)cc21	106%	106%	94.4%	101%	94.9%	93.9%	101%	84.9%	92.9%	90.6%	116%	102%	104%	98.2%	97.6%	104%	103%	97.1%	105%	97.8%	100%	95.8%	97.5%	94.9%	100%	> 10 µM	> 10 µM	> 10 µM	> 10 µM	> 10 µM	0	0	0	0	0
